The values below come from patent US9693954B2, “Co-delivery of stimulatory and inhibitory factors to create temporally stable and spatially restricted zones” (President and Fellows of Harvard College, priority 2010, dated 2017).

Experiment [1] relates to TGF-β reporter line (MLEC p3TP Luc). Briefly: TGF-β reporter cell line luciferase activity. Format: cell-based. The protocol: (§1) FIG. 22E is a schematic showing an experimental scheme to show the precise kinetics of growth factor exposure on luciferase activity in the reporter lines. Following seeding and serum starvation (reduces background), a specific inhibitor is added to create a uniform inhibitory field. Subsequently, for given amounts of time, the inhibitor is washed off, the growth factor (either TGF-β1 or BMP4) is added for specified time, and washed off followed by re-addition of the inhibitor. At 24 hours, cells are lysed and assayed for luciferase activity.
(§2) The reporter cell lines were seeded in these 5 layered systems and imaged for luciferase activity after 24 hours to confirm development of spatially distinct morphogens fields.

The subject of experiment [2] is phospho-Smad2 in D1 (MSCs). As to the kind of experiment: immunoblot / immunostaining for phospho-Smad2 (2/3) in D1 MSCs. Format: cell-based. The protocol: (§3) Experiments were carried out with the following morphogens: TGF-β1 to drive dentin differentiation and BMP4 to drive bone differentiation. The scaffold devices were fabricated, loaded with morphogens (in this case, differentiation factors), and then seeded with stem cells, e.g., mesendymal stem cells, embryonic stem cells or induced pluripotent stem cells (iPS)). The loaded, seeded devices were cultured for 21 days with no additional factors present in the media. All factors came from within the scaffold from the point of seeding. Immunoblots were carried out to assess activation of the downstream Smad signaling pathways following treatment of D1s with these morphogens.

Experiment [3] concerns dermal human vascular endothelial cells (HMVECs). As to the kind of experiment: in vitro sprouting assay (cell-seeded dextran beads in fibrin gel). The note with it: HMVEC-coated beads in fibrin gel, 4 days, 10 ng/mL HGF in all media. Format: cell-based. The protocol:
Briefly, dermal human vascular endothelial cells (HMVECs) were purchased from Lonza (CC-2543) and cultured to confluence at 37° C. and 5% CO2 in microvascular endothelial cell growth medium-2 (EGM-2MV) (Lonza) containing all supplements. Angiogenic activity of endothelial cells was assessed using a modification of a widely used in vitro sprouting assay (Nehls, V., and Drenckhahn, D. 1995 Microvasc Res 50, 311-322). Briefly, dextran beads microcarriers (Cytodex 3) with a dry weight of 50 mg were swollen in PBS and autoclaved. The microcarriers were washed in EGM-2MV medium and seeded with 3×10^6 HMVECs in a spinner flask. The microcarriers were stirred for 2 minutes out of 30 minutes for […] at 37° C. incubation. After 4 hours, the beads and cells mixture were continuously stirred and incubated for an additional 20 hours. The cell-coated beads were then seeded in fibrin gel in a 24-well-plate. The composition of the fibrin gel in each well was 0.682 mg fibrinogen (Sigma, T3879), 11.4 μg aprotinin (Sigma, A4529), 0.455 U thrombin (Sigma, T6884) in 393 μL of phosphate buffered saline (PBS) and 57 μL of EGM2-MV. Gels were incubated at 37° C. for 30 minutes and media of experimental conditions were placed on top of the gel. […] Media were changed every 24 hours and the cells were allowed to sprout from beads into surrounding gel over 4 days. […]

A further experiment deals with angiogenesis. The note with it: from previous studies; cited from earlier work.
Experiment [4] deals with BMP4 reporter (C2C12 BRE Luc). Briefly: BMP4 reporter cell line luciferase activity. The format is cell-based. On the procedure:
as §1, §2

Experiment [5] has as its system phospho-Smad1/5/8 in D1 (MSCs). As to the kind of experiment: immunoblot for phospho-Smad1/5/8 in D1 MSCs. Format: cell-based. The protocol:
as §3

[6] abbreviates: inhibitor wash-off / re-addition scheme, lysis at 24 hours.

For “TGF-β1: transforming growth factor-β1, morphogen used to drive dentin differentiation”, the “luciferase activity with varying TGF-β1 concentration” value in experiment [1] is “linear dose dependence”. The “exposure time sufficient for maximal induction of luciferase activity” value in experiment [1] (setting [6]) lay in the range of 5 to 15 min. For the same molecule, the “phospho-Smad2 activation (immunoblot)” value in experiment [2] is on record as “dose-dependent activation”. For the same molecule, the phospho-Smad2/3 immunostaining entry in experiment [2] (following stimulation) is “nuclear localization of activated Smads”.

VEGF: the “angiogenic sprouting (number of sprouts per bead)” value in experiment [3] was “induced angiogenic sprouting”. Moreover, the “minimum effective VEGF concentration in vivo to induce angiogenesis” value in the experiment with angiogenesis is about 5 ng/mL.

B1: BMP4: bone morphogenetic protein 4, morphogen used to drive bone differentiation (protein, UniProt P12644 293-408, looked up)
Bone morphogenetic protein 4: SPKHHSQRARKKNKNCRRHSLYVDFSDVGWNDWIVAPPGYQAFYCHGDCPFPLADHLNSTNHAIVQTLVNSVNSSIPKACCVPTELSAISMLYLDEYDKVVLKNYQEMVVEGCGCR
With B1, the “luciferase activity with varying BMP4 concentration” value in experiment [4] is “linear dose dependence”. Besides, the “exposure time sufficient for maximal induction of luciferase activity” value in experiment [4] (setting [6]) is 5 to 15 min. Further, the “phospho-Smad1/5/8 activation (immunoblot)” value in experiment [5] is recorded as “dose-dependent activation”.
